Test results taken from patent US20250215039A1, “NUCLEOSIDES FOR TREATING CANCER” (PRIMEFOUR THERAPEUTICS, INC., priority 2022, published 2025).
Where two headings read alike, the source gives them in different places.

Tested on: cancer cell lines
Experiment: Cancer cell proliferation activity (CellTiterGlo, 72 h)
Assay type: cell-based
Settings: 72 h, 72 h, read-out: IC50
Method in brief: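 Readout is CellTiterGlo luminescence after 72 h compound exposure (0.1% DMSO final), started one day post-seeding, at 37 °C.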

CCC[C@]1(CO)O[C@@H](n2cnc3c(N)nc(F)nc32)C[C@@H]1O [Cpd. No. 129, (2R,3S,5R)-5-(6-amino-2-fluoro-9H-purin-9-yl)-2-(hydroxymethyl)-2-propyltetrahydrofuran-3-ol]
IC50 (5637 cell line (bladder)): 560 nM | IC50 (AS49 cell line (lung)): 3010 nM | IC50 (CLS439 cell line (bladder)): 3260 nM | IC50 (HS729 cell line (muscle)): 870 nM | IC50 (JAR cell line (placenta)): 320 nM | IC50 (Homo sapiens, 22Rv1, 72 h, 22RV1 cell line (prostate)): 1080 nM | IC50 (Homo sapiens, 786-0, 72 h, 786O cell line (kidney)): 300 nM | IC50 (Homo sapiens, A204, 72 h, A204 cell line (muscle)): 220 nM | IC50 (Homo sapiens, A673, 72 h, A673 cell line (bone)): 1440 nM | IC50 (Homo sapiens, A2780, 72 h, A2780 cell line (ovary)): 740 nM | IC50 (Homo sapiens, A-375, 72 h, A375 cell line (skin)): 200 nM | IC50 (Homo sapiens, A-431, 72 h, A431 cell line (skin)): 330 nM | IC50 (Homo sapiens, ACHN, ACHN cell line (kidney)): 2540 nM | IC50 (Homo sapiens, ASPC1, 72 h, ASPC1 cell line (pancreas)): 220 nM | IC50 (Homo sapiens, BT-20, 72 h, BT20 cell line (breast)): 340 nM | IC50 (Homo sapiens, BXPC-3, 72 h, BXPC3 cell line (pancreas)): 2530 nM | IC50 (Homo sapiens, C-33-A, C33A cell line (cervical)): 630 nM | IC50 (Homo sapiens, CAKI-1, 72 h, CAKI1 cell line (kidney)): 20 nM | IC50 (Homo sapiens, COLO 205, 72 h, COLO205 cell line (colon)): 760 nM | IC50 (Homo sapiens, COLO-678, 72 h, COLO678 cell line (colon)): 1990 nM | IC50 (Homo sapiens, Ca-Ski, CASKI cell line (cervical)): 160 nM | IC50 (Homo sapiens, Caco-2, 72 h, CACO2 cell line (colon)): 610 nM | IC50 (Homo sapiens, Calu-6, 72 h, CALU6 cell line (lung)): 300 nM | IC50 (Homo sapiens, DLD-1, 72 h, DLD1 cell line (colon)): 2030 nM | IC50 (Homo sapiens, DU-145, 72 h, DU145 cell line (prostate)): 120 nM | IC50 (Homo sapiens, EFO-21, 72 h, EFO21 cell line (ovary)): 330 nM | IC50 (Homo sapiens, EJ-28, 72 h, EJ28 cell line (bladder)): 220 nM | IC50 (Homo sapiens, Granta-519, 72 h, GRANTA-519 cell line (hematological)): 2600 nM | IC50 (Homo sapiens, HCT-15, 72 h, HCT15 cell line (colon)): 1460 nM | IC50 (Homo sapiens, HCT-116, 72 h, HCT116 cell line (colon)): 480 nM | IC50 (Homo sapiens, HEK293, 72 h, HEK293 cell line (kidney)): 380 nM | IC50 (Homo sapiens, HL-60, 72 h, HL-60 cell line (hematological)): 330 nM | IC50 (Homo sapiens, HT-29, 72 h, HT29 cell line (colon)): 220 nM | IC50 (Homo sapiens, HT-1080, 72 h, HT1080 cell line (connective tissue)): 3630 nM | IC50 (Homo sapiens, HeLa, HELA cell line (cervical)): 440 nM | IC50 (Homo sapiens, HepG2, 72 h, HEPG2 cell line (liver)): 300 nM | IC50 (Homo sapiens, Hs-578T, HS578T cell line, breast): 550 nM | IC50 (Homo sapiens, IGROV-1, 72 h, IGROV1 cell line (ovary)): 200 nM | IC50 (Homo sapiens, IMR-90, 72 h, IMR90 cell line, lung): 410 nM | IC50 (Homo sapiens, J82, 72 h, J82 cell line (bladder)): 470 nM | IC50 (Homo sapiens, JEG-3, 72 h, JEG3 cell line (placenta)): 290 nM | IC50 (Homo sapiens, JIMT-1, 72 h, JIMT1 cell line (breast)): 80 nM | IC50 (Homo sapiens, K562, 72 h, K-562 cell line (hematological)): 5370 nM | IC50 (Homo sapiens, Kasumi 1, 72 h, KASUMI-1 cell line (hematological)): 60 nM | IC50 (Homo sapiens, L-363, 72 h, L-363 cell line (hematological)): 290 nM | IC50 (Homo sapiens, LoVo, LOVO cell line (colon)): 140 nM | IC50 (Homo sapiens, MCF7, 72 h, MCF7 cell line (breast)): 9700 nM | IC50 (Homo sapiens, MDA-MB-231, 72 h, MDAMB231 cell line (breast)): 2850 nM | IC50 (Homo sapiens, MDA-MB-435, 72 h, MDAMB435 cell line (skin)): 1400 nM | IC50 (Homo sapiens, MDA-MB-436, 72 h, MDAMB436 cell line (breast)): 190 nM | IC50 (Homo sapiens, MDA-MB-468, 72 h, MDAMB468 cell line (breast)): 270 nM | IC50 (Homo sapiens, MG-63, 72 h, MG63 cell line (bone)): > 50000 nM | IC50 (Homo sapiens, MHH-ES-1, 72 h, MHHES1 cell line (bone)): 400 nM | IC50 (Homo sapiens, MIA PaCa-2, 72 h, MIAPACA2 cell line (pancreas)): > 50000 nM | IC50 (Homo sapiens, MINO, MINO cell line (hematological)): 150 nM | IC50 (Homo sapiens, MV4-11, 72 h, MV4-11 cell line (hematological)): 50 nM | IC50 (Homo sapiens, NCI-H23, 72 h, NCI-H23 cell line (lung)): 410 nM | IC50 (Homo sapiens, NCI-H82, 72 h, NCIH82 cell line (lung)): 390 nM | IC50 (Homo sapiens, NCI-H292, 72 h, NCIH292 cell line (lung)): 4170 nM | IC50 (Homo sapiens, NCI-H460, 72 h, NCIH460 cell line (lung)): 500 nM | IC50 (Homo sapiens, OVCAR-3, 72 h, OVCAR3 cell line (ovary)): 170 nM | IC50 (Homo sapiens, OVCAR-4, 72 h, OVCAR4 cell line (ovary)): 560 nM | IC50 (Homo sapiens, PANC-1, 72 h, PANC1 cell line (pancreas)): > 50000 nM | IC50 (Homo sapiens, PC-3, 72 h, PC3 cell line (prostate)): 470 nM | IC50 (Homo sapiens, PLC-PRF-5, 72 h, PLCPRF5 cell line (liver)): 2020 nM | IC50 (Homo sapiens, Panc1005, 72 h, PANC1005 cell line (pancreas)): 230 nM | IC50 (Homo sapiens, RD, RD cell line (muscle)): 640 nM | IC50 (Homo sapiens, Ramos, RAMOS cell line (hematological)): 520 nM | IC50 (Homo sapiens, SAOS-2, 72 h, SAOS2 cell line (bone)): 300 nM | IC50 (Homo sapiens, SF-268, 72 h, SF268 cell line (brain)): 5030 nM | IC50 (Homo sapiens, SF-295, 72 h, SF295 cell line (brain)): 1650 nM | IC50 (Homo sapiens, SK-BR-3, 72 h, SKBR3 cell line (breast)): 50 nM | IC50 (Homo sapiens, SK-HEP1, 72 h, SKHEP1 cell line (liver)): 2410 nM | IC50 (Homo sapiens, SK-LMS-1, 72 h, SKLMS1 cell line (uterus)): 300 nM | IC50 (Homo sapiens, SK-MEL-5, 72 h, SKMEL5 cell line, skin): 3170 nM | IC50 (Homo sapiens, SK-MEL-28, 72 h, SKMEL28 cell line (skin)): 680 nM | IC50 (Homo sapiens, SK-N-AS, SKNAS cell line (brain)): 370 nM | IC50 (Homo sapiens, SK-N-SH, SKNSH cell line (brain)): 260 nM | IC50 (Homo sapiens, SK-OV-3, 72 h, SKOV3 cell line (ovary)): 460 nM | IC50 (Homo sapiens, SNB-75, 72 h, SNB75 cell line (brain)): 1380 nM | IC50 (Homo sapiens, SU-DHL10, 72 h, SU-DHL-10 cell line (hematological)): 460 nM | IC50 (Homo sapiens, SU-DHL-6, 72 h, SU-DHL-6 cell line (hematological)): 240 nM | IC50 (Homo sapiens, SW-620, 72 h, SW620 cell line (colon)): 360 nM | IC50 (Homo sapiens, T-24, 72 h, T24 cell line (bladder)): 600 nM | IC50 (Homo sapiens, TE-671, 72 h, TE671 cell line (muscle)): 2440 nM | IC50 (Homo sapiens, THP-1, 72 h, THP-1 cell line (hematological)): 2270 nM | IC50 (Homo sapiens, U2OS, U2OS cell line (bone)): 510 nM | IC50 (Homo sapiens, U-87 MG, U87MG cell line (brain)): 3130 nM | IC50 (Homo sapiens, UMUC3, 72 h, UMUC3 cell line (bladder)): 3040 nM | IC50 (Homo sapiens, UO-31, 72 h, UO31 cell line (kidney)): 240 nM | IC50 (Homo sapiens, WSU-NHL, WSU-NHL cell line (hematological)): 460 nM | IC50 (MT-3, 72 h, MT3 cell line (breast)): 280 nM | IC50 (NCI-H358M, NCIH358M cell line (lung)): 270 nM | IC50 (PBMC, PBMC (hematological)): > 50000 nM | IC50 (RD-ES, RDES cell line (bone)): 250 nM
